In assay [1] the target is T1, Electric eel AChE (Electrophorus electricus, UniProt O42275).
T1 construct: purchased Sigma-Aldrich Co. (St. Louis, MO, USA)
Briefly: In vitro ChE enzyme assay (Ellman), AChE. The class given is biochemical. The procedure:
(§1) Electric eel AChE (EC 3.1.1.7), horse serum BChE (EC 3.1.1.8), acetylthiocholine iodide (ATCh), butyrylthiocholine chloride (BTCh), 5,5-dithiobis[2-nitrobenzoic acid] […] All required reagent-grade chemicals used in this study were purchased from commercial sources. Coumestrol and puerarol were isolated from P. lobata as described by Seong et al..
(§2) The inhibitory activity of coumestrol and puerarol against ChEs was measured using the spectrophotometric methods reported by Ellman et al. and Jung et al.. ATCh and BTCh were used as substrates to assay the inhibition of AChE and BChE, respectively. All reactions were performed in triplicate and were recorded in a 96-well microplate format using a microplate spectrophotometer (Molecular Devices, Sunnyvale, CA, USA). Percent inhibition was calculated as (1 − S/E) × 100, where E and S were the enzyme activities without and with the test sample, respectively.
On the technique in general: In Ellman's method for cholinesterases, released thiocholine reacts with DTNB.

Assay [2] can be described thus: DPPH radical scavenging activity. Conditions: mean ± S.E.M of triplicate experiments. The procedure: DPPH radical scavenging activity was evaluated using the method of Blois, with slight modification. Test samples and DPPH were dissolved in methanol. Each test sample (160 µL) at various concentrations was added to 40 µL of DPPH solution (1.5 × 10^−4 M). After gently mixing and standing at room temperature for 30 min, the optical density of the reactant was measured at 520 nm using a VERSAmax microplate spectrophotometer (Molecular Devices, Sunnyvale, CA, USA). […] L-Ascorbic acid was used as a positive control.
(In general: Loss of DPPH colour is used to gauge radical scavenging.)

Assay [3] is described as follows: ONOO− scavenging activity (DHR 123 oxidation). The settings on record: mean ± S.E.M of triplicate experiments; read-out: EC50 Peroxynitrite scavenging. The procedure: In brief, the rhodamine buffer (pH 7.4) consisted of 50 mM sodium phosphate dibasic, 50 mM sodium phosphate monobasic, 90 mM sodium chloride, 5.0 mM potassium chloride, and 100 μM diethylenetriamine pentaacetate. […] The assay buffer was prepared prior to use and placed on ice. Test samples were dissolved in 10% DMSO (100 μM final concentration). The background and final fluorescent intensities were measured 5 min after treatment with and without the addition of authentic ONOO^− (10 μM), dissolved in 0.3 N sodium hydroxide. […] L-penicillamine was used as a positive control.

Assay [4] is described as follows: Western blot analysis for inhibition of ONOO−-mediated nitrotyrosine formation (BSA nitration). The procedure: Figure 2 Dose-depended inhibition of ONOO^−-mediated albumin nitration by coumestrol and puerarol. Mixtures of test samples, bovine serum albumin (BSA), and ONOO^− were incubated with shaking at 37 °C for 30 min. The reactant was resolved in 10% polyacrylamide gel via electrophoresis. (a) Coumestrol; and (b) puerarol, were used at the indicated concentrations; (c) Quantification of band intensity was calculated using CS Analyzer 3.00 (ATTO Corp., Tokyo, Japan). ^# p < 0.05 indicates a significant difference from the untreated normal group, * p < 0.05 indicate significant differences from the ONOO^− treated control.
The inhibition of ONOO^−-nitrotyrosine formation was evaluated using the method of Aulak et al.. Samples were added to BSA and mixed with ONOO^− (200 µM). After a 10 min incubation period (room temperature), the sample solution was added to Bio-Rad 2X Laemmli Sample buffer with mercaptoethanol and then boiled for 7 min. The reactant was resolved in 10% polyacrylamide gel via electrophoresis and transferred to PVDF membranes. Pre-stained blue protein markers were used for molecular weight determination. […] Densitometric analysis of the western blot results was determined using a CS analyzer v3.00 (ATTO Corp.).

Assay [5] has as its target T2, horse serum BChE (Equus caballus, UniProt P81908).
T2 construct: horse serum BChE (EC 3.1.1.8); purchased Sigma-Aldrich Co. (St. Louis, MO, USA); host or cells: horse serum
Briefly: In vitro ChE enzyme assay (Ellman), BChE. The assay is classed as biochemical. Conditions: substrate BTCh; mean ± S.E.M of triplicate experiments. The procedure:
as §1, §2

The target of assay [6] is T3, BACE1 (Homo sapiens, UniProt P56817).
T3 construct: purchased
Description: In vitro BACE1 enzyme assay. The class given is biochemical. Conditions: mean ± S.E.M of triplicate experiments. The procedure: The in vitro BACE1 enzyme assay was carried out according to the manufacturer’s recommended protocol with minor modifications. Briefly, a mixture of […] of assay buffer (50 mM sodium acetate, pH 4.5), […] of BACE1 (1.0 U/mL), […] of substrate (750 nM Rh-[…]-Quencher in 50 mM, ammonium bicarbonate) and […] of the test sample was dissolved in 10% DMSO and incubated for 60 min at 25 °C in the dark. Proteolysis of the two fluorophores (Rh-[…]-Quencher) by BACE1 was determined by monitoring formation of the fluorescent donor (Rh-EVNL) at wavelengths of 545 nm for excitation and 585 nm for emission. Fluorescence was measured with a microplate spectrofluorometer (Gemini EM, Sunnyvale, CA, USA).

Assay [7] has as its target T1, Electric eel AChE. Description: Enzyme kinetic analysis for AChE inhibition (Lineweaver-Burk and secondary plots). The class given is biochemical. Conditions: for Inhibition mode, AChE: Lineweaver-Burk plots. The procedure:
(§3) To elucidate the mechanisms of ChE inhibition, kinetic studies of enzyme activity were performed. The slope or intercept in Lineweaver-Burk plots were drawn in SigmaPlot 12.0 as a function of inhibitor concentration, and the kinetic parameters were determined.
(§4) To determine the mechanism of inhibition, AChE, BChE, and BACE1 inhibition was evaluated by monitoring the effects of different concentrations of substrate (0.4 to 0.8 mM for AChE and BChE; 250 to 750 nM for BACE1). Specifically, AChE, BChE, and BACE1 inhibition assays were performed as described above, but the substrate concentration was varied. Inhibition modes of coumestrol and puerarol against ChEs and BACE1 were determined by Lineweaver–Burk plots. Inhibition constants (Ki) were determined by secondary plots.

For assay [8], the target named is T2, horse serum BChE. Briefly: Enzyme kinetic analysis for BChE inhibition (Lineweaver-Burk and secondary plots). The settings on record: for Inhibition mode, BChE: Lineweaver-Burk plots; for Ki: secondary plot. The assay is classed as biochemical. As to the method:
as §3, §4

For assay [9] the following is noted: cited from earlier work.
Assay [10] deals with T3, BACE1. Description: Enzyme kinetic analysis for BACE1 inhibition (Lineweaver-Burk and secondary plots). The class given is biochemical. Conditions: for Inhibition mode, BACE1: Lineweaver-Burk plots; for Ki: secondary plot. The procedure:
as §3, §4

Where [11] appears, read: substrate ATCh, mean ± S.E.M of triplicate experiments, read-out: IC50 AChE.

Structures are written as SMILES. Entries after “also recorded” stand apart in the source; their conditions may differ. Where two headings read alike, the source gives them in different places.

T2 sequence (P81908 whole entry): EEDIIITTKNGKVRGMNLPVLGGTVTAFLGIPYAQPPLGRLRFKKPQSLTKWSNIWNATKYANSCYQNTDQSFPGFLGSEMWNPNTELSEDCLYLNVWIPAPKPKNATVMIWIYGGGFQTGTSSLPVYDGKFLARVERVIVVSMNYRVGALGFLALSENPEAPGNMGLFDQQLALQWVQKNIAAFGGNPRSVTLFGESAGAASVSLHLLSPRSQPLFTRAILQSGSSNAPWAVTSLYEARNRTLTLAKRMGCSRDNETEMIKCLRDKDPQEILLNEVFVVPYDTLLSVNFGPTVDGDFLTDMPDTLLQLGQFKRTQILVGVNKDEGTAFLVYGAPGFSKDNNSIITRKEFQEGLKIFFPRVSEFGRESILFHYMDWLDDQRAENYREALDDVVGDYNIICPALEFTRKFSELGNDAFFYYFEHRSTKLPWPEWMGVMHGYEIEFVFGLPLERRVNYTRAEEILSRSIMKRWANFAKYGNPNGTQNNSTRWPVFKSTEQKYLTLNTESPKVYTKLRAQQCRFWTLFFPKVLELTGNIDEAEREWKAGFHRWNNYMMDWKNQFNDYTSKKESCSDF
T3 sequence (P56817 46-501): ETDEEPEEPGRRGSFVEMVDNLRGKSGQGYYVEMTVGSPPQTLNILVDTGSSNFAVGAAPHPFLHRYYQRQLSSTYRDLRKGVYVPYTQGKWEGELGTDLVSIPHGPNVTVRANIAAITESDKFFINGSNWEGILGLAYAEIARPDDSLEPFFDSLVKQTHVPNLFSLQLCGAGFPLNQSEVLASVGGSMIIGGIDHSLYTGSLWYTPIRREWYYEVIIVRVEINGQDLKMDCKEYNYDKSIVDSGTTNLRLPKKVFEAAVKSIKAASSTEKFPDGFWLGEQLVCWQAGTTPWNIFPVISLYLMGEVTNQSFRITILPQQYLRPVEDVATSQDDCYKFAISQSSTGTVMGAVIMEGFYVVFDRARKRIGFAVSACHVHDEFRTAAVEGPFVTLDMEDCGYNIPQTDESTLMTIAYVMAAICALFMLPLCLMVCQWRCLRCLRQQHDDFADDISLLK
T1 sequence (O42275 24-633): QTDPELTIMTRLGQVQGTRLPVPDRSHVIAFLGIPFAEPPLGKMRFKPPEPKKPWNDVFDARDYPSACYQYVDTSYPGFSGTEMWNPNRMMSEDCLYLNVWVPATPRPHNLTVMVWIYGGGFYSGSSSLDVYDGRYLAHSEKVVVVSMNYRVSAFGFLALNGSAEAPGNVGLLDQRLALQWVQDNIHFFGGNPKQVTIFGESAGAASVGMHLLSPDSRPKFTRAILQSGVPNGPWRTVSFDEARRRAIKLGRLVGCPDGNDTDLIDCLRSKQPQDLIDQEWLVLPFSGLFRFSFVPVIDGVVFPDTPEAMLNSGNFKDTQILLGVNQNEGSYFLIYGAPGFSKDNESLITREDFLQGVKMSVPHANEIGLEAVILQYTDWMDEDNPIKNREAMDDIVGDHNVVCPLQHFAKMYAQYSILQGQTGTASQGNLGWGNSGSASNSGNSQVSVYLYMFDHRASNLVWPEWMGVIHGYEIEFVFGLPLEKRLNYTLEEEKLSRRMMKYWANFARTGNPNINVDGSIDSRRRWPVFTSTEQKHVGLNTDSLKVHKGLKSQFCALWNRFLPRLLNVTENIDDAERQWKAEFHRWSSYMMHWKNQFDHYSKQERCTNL

In general, IC50 refers to the point on the concentration scale where inhibition reaches its midpoint. Compound `COc1ccc2cc3[n+](cc2c1OC)CCc1cc2c(cc1-3)OCO2` [Berberine, berberine chloride, reference compound] returned a half-maximal inhibitory concentration (IC50) at Electric eel AChE [1] of 2.22 ± 0.02 µM.
Broadly, the EC50 is the concentration needed to bring the measured effect to its halfway point. What is called Ki is a measure of affinity in units of concentration, obtained from inhibition or displacement. Regarding `O=c1oc2cc(O)ccc2c2oc3cc(O)ccc3c12` [Coumestrol], the EC50 in assay [2] turned out to be 54 ± 1 µM; in assay [3], 1.17 ± 0.11 µM. The “Blot intensity of ONOO−-mediated nitrated BSA” value in assay [4] (10 µM to 100 µM) is given as “dose dependent decrease”. Further, the IC50 on Electric eel AChE [1] (setting [11]) came to 42.3 ± 1.29 µM; on horse serum BChE [5], 24.6 ± 2.28 µM; on BACE1 [6], 51 ± 1.86 µM. Further, the results for the “Inhibition mode, AChE” value on Electric eel AChE [7] and on Electric eel AChE [7] (listed as coumestrol) were “Competitive” and “competitive”, respectively. Further, the inhibition constant Ki came out at 48.9 µM at Electric eel AChE [7] (secondary plot, binding constant of inhibitor with free enzyme, read-out: Ki value Kic, AChE); 41.9 µM at horse serum BChE [8] (binding constant of inhibitor with enzyme-substrate complex, read-out: Ki value Kiu, BChE); 12.1 µM on horse serum BChE [8] (binding constant of inhibitor with free enzyme, read-out: Ki value Kic, BChE). The “Inhibition mode, BChE” value at horse serum BChE [8] is “Mixed-type”; on horse serum BChE [8] (listed as coumestrol) it was “mixed type”. For the same compound, the DPPH scavenging entry in [9] (ref 29 (Booth et al.)) is on record as “inactivity”.
Compound `O=C1O[C@H]([C@@H](O)CO)C(O)=C1O` [L-Ascorbic acid, reference compound] showed an EC50 in assay [2] of 17.4 ± 0.32 µM.
`CC(C)=CCCC(C)=CCc1cc2c(cc1O)oc(=O)c1c3ccc(O)cc3oc21` [Puerarol]: the EC50 in assay [2] worked out at 82.5 ± 1.33 µM; in assay [3] it was 6.99 ± 0.3 µM. Moreover, the “Blot intensity of ONOO−-mediated nitrated BSA” value in assay [4] (50–200 µM) was “dose dependent decrease”. Besides, the values for the half-maximal inhibitory concentration (IC50) at Electric eel AChE [1] (setting [11]), at horse serum BChE [5] and at BACE1 [6] were 145 ± 2.46 µM, greater than 200 µM and 28.2 ± 2.48 µM, respectively. The “Inhibition mode, BACE1” value is given as “Mixed-type ^e” at BACE1 [10] and “mixed inhibition; also recorded: mixed type” on BACE1 [10] (listed as puerarol). In addition, the inhibitory constant (Ki) on BACE1 [10] (binding constant of inhibitor with enzyme-substrate complex, read-out: Ki value Kiu, BACE1) turned out to be 73.2 µM; on BACE1 [10] (binding constant of inhibitor with free enzyme, read-out: Ki value Kic, BACE1), 33.8 µM.
With `COc1cc(O)c2c(c1)oc(=O)c1c3cc(O)c(O)cc3oc21` [wedelolactone, reference compound], the 50% inhibitory concentration (IC50) in assay [9] (read-out: DPPH scavenging activity IC50) is 7 µM.

(Values after paper PMC6017171, “Comparative Evaluation of the Antioxidant and Anti-Alzheimer’s Disease Potential of Coumestrol and Puerarol Isolated from Pueraria lobata Using Molecular Modeling Studies” (Molecules : A Journal of Synthetic Chemistry and Natural …, 2018).)
